Data from US12545637B2, “Extrahepatic targeted cationic lipid compound with high efficiency and low toxicity and its composition” (BEIJING YOUCARE KECHUANG PHARMACEUTICAL TECHNOLOGY CO., LTD., priority 2023, dated 2026).
Several values for one entry are separate records, joined by “and”; a condition that tells them apart may be missing. Identical values can stand only once.

Columns and labels:
293T cells = test: Fluorescent detection of Fluc-mRNA (cell transfection efficiency of LNP formulations); type: cell-based
[1] = Detection of encapsulation efficiency, drug loading concentration and total RNA concentration (RiboGreen); type: physicochemical
In short: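 LNP samples were diluted in 1×TE to approximately […], then mixed with 1×TE and 0.1% Triton X-100 buffers. After 10 minutes at 37 °C, RiboGreen (1:200) was added and fluorescence read against an mRNA standard, giving encapsulation efficiency, drug loading concentration and total RNA concentration.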

[2] = Particle size and polydispersity index (PDI) of lipid nanoparticles by dynamic light scattering; type: physicochemical
Description: The particle size and polydispersity index (PDI) were determined by dynamic light scattering using Malvern laser particle size analyzer.
10 μL of the liposome solution was weighed, diluted to 1 mL with RNase-free deionized water, and added to the sample pool. Each sample was measured in triplicate. The measurement conditions were: […] scattering angle, and 25° C.

female BALB/C mice [3] = test: Distribution of liposomes in mice (protein expression in liver, spleen, lung, heart and kidney); type: in vivo; details: mouse, in vivo
female BALB/C mice [4] = test: In vivo imaging in mice of Fluc-mRNA LNP formulations (mRNA expression and duration)
In short: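 Female BALB/C mice (4-6 weeks, 17-19 g) received LNP carrying […] Fluc-mRNA intramuscularly. At 6h, 24 h, 48h and 7d, fluorescent imaging substrate was given intraperitoneally and after 5 minutes average radiance, as a measure of expressed protein, was imaged on an IVIS Spectrum system.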

[5] = LNP formulation prepared from the cationic lipid

## CCCCCCCCCCCOC(=O)CCCN(CCO)CCN(CCO)CCCCCC(=O)OC(CCCCCCCC)CCCCCCCC [YK-407]
293T cells; ratio vs ALC-0315
  RLU value, times that of ALC-0315: 9.31
293T cells; ratio vs HHMA
  RLU value, times that of HHMA: 9.81
293T cells; ratio vs Lipofectamine 3000
  RLU value, times that of Lipofectamine 3000: 16.98
293T cells; ratio vs YK-009
  RLU value, times that of YK-009: 3.96
293T cells; ratio vs YK-405
  RLU value, times that of YK-405: 6.37
293T cells; ratio vs YK-406
  RLU value, times that of YK-406: 260.51
293T cells; ratio vs YK-408
  RLU value, times that of YK-408: 13.83
293T cells; ratio vs YK-409
  RLU value, times that of YK-409: 30.43
293T cells; ratio vs YK-410
  RLU value, times that of YK-410: 49.98
293T cells; ratio vs YK-412
  cell transfection efficiency, times that of YK-412: 6.05
293T cells; ratio vs YK-413
  cell transfection efficiency, times that of YK-413: 14.80
293T cells; ratio vs YK-414
  cell transfection efficiency, times that of YK-414: 45.90
293T cells; ratio vs YK-416
  cell transfection efficiency, times that of YK-416: 5.13
293T cells; ratio vs YK-419
  cell transfection efficiency, times that of YK-419: 6.44
293T cells; ratio vs YK-420
  cell transfection efficiency, times that of YK-420: 5.07
293T cells; ratio vs YK-421
  cell transfection efficiency, times that of YK-421: 43.69
[1]; [5]
  Drug loading concentration: 35.67 µg/mL
  Encapsulation efficiency: 85.2%
  Total RNA concentration: 40.77 µg/mL
[1]; difference vs ALC-0315
  encapsulation efficiency higher than ALC-0315: 21.9%
[1]; difference vs HIMA (HHMA)
  encapsulation efficiency higher than HIMA: 25.0%
[1]; difference vs SM-102
  encapsulation efficiency higher than SM-102: 22.3%
[1]; difference vs YK-009
  encapsulation efficiency higher than YK-009: 21.8%
[1]; difference vs compound 21
  encapsulation efficiency higher than compound 21: 27.2%
[1]; difference vs compound 23
  encapsulation efficiency higher than compound 23: 29.0%
[1]; ratio vs ALC-0315
  drug loading concentration, times that of ALC-0315: 1.33
  total RNA concentration, times that of ALC-0315: 1.08
[1]; ratio vs HIMA (HHMA)
  drug loading concentration, times that of HIMA: 1.09
  total RNA concentration, times that of HIMA: 1.12
[1]; ratio vs SM-102
  drug loading concentration, times that of SM-102: 1.34
  total RNA concentration, times that of SM-102: 1.13
[1]; ratio vs YK-009
  drug loading concentration, times that of YK-009: 1.30
  total RNA concentration, times that of YK-009: 1.06
[1]; ratio vs compound 21
  drug loading concentration, times that of compound 21: 1.62
  total RNA concentration, times that of compound 21: 1.41
[1]; ratio vs compound 23
  drug loading concentration, times that of compound 23: 1.78
  total RNA concentration, times that of compound 23: 1.31
[2]; LNP formulation of the cationic lipid, 25° C.
  PDI: 16.6%
[2]; LNP formulation of the cationic lipid/DSPC/cholesterol/DMG-PEG2000 49:10:39.5:1.5, 25° C.
  Particle size: 162 nm
Female BALB/C mice [3]
  protein expression in the liver: had no protein expression in the liver
  protein expression in the spleen: had protein expression in the spleen
Female BALB/C mice [4]; 6 h
  average radiation intensity, times that of ALC-0315: 4.76
  average radiation intensity, times that of HHMA: 6.05
  average radiation intensity, times that of SM-102: 5.79
  average radiation intensity, times that of compound 21: 6.66
  average radiation intensity, times that of compound 23: 6.88
  expression amount in mice, times that of YK-415: 33.96
  expression amount in mice, times that of YK-417: 66.16
Female BALB/C mice [4]; 24 h
  average radiation intensity, times that of ALC-0315: 10.62
  average radiation intensity, times that of HHMA: 16.80
  average radiation intensity, times that of SM-102: 16.34
  average radiation intensity, times that of compound 21: 18.15
  average radiation intensity, times that of compound 23: 19.97
  expression amount in mice, times that of YK-415: 31.25
  expression amount in mice, times that of YK-417: 100.86
  mRNA expression in mice, times that of YK-411: 996.97 and 1000
Female BALB/C mice [4]; 48 h
  average radiation intensity, times that of ALC-0315: 22 and 22.06
  average radiation intensity, times that of HHMA: 27 and 26.55
  average radiation intensity, times that of SM-102: 27 and 26.93
  average radiation intensity, times that of compound 21: 28 and 28.07
  average radiation intensity, times that of compound 23: 27 and 26.89
  expression amount in mice, times that of YK-415: 56.07
  expression amount in mice, times that of YK-417: 125.66 and 120
  mRNA expression in mice, times that of YK-411: 907.99
Female BALB/C mice [4]; 7 d
  average radiation intensity, times that of ALC-0315: 6.90
  average radiation intensity, times that of HHMA: 8.13
  average radiation intensity, times that of SM-102: 7.20
  average radiation intensity, times that of compound 21: 7.59
  average radiation intensity, times that of compound 23: 7.93
  expression amount in mice, times that of YK-415: 11.98
  expression amount in mice, times that of YK-417: 21.20 and 20
  mRNA expression in mice, times that of YK-411: 100.85 and 100
Female BALB/C mice [4]; Fluc-mRNA LNP intramuscular, 6 h after administration
  average radiation intensity, 6 h: 4001500
Female BALB/C mice [4]; Fluc-mRNA LNP intramuscular, 24 h after administration
  average radiation intensity, 24 h: 2015870
Female BALB/C mice [4]; Fluc-mRNA LNP intramuscular, 48 h after administration
  average radiation intensity, 48 h: 885288
Female BALB/C mice [4]; Fluc-mRNA LNP intramuscular, 7 d after administration
  average radiation intensity, 7 d: 48410
